# Test results: patent US20260365670A1, “EGFR INHIBITORS AND USES THEREOF” (DIZAL (JIANGSU) PHARMACEUTICAL CO., LTD., priority 2022, published 2026)
# Where two headings read alike, the source gives them in different places.
# Assays:
# EGFR (C797S L858R) = biological target: T1, EGFR (C797S L858R) (Homo sapiens, UniProt P00533, C797S/L858R); assay: Inhibition of EGFR (C797S L858R) biochemical enzymatic activity (HTRF); details: EGFR L858-C797S, 1 mM ATP, 1 h, room temperature, read-out: IC50 (nM) @L858-C797S
# T1 construct: purchased signalchem
# T1 sequence (P00533 25-1210 C797S/L858R): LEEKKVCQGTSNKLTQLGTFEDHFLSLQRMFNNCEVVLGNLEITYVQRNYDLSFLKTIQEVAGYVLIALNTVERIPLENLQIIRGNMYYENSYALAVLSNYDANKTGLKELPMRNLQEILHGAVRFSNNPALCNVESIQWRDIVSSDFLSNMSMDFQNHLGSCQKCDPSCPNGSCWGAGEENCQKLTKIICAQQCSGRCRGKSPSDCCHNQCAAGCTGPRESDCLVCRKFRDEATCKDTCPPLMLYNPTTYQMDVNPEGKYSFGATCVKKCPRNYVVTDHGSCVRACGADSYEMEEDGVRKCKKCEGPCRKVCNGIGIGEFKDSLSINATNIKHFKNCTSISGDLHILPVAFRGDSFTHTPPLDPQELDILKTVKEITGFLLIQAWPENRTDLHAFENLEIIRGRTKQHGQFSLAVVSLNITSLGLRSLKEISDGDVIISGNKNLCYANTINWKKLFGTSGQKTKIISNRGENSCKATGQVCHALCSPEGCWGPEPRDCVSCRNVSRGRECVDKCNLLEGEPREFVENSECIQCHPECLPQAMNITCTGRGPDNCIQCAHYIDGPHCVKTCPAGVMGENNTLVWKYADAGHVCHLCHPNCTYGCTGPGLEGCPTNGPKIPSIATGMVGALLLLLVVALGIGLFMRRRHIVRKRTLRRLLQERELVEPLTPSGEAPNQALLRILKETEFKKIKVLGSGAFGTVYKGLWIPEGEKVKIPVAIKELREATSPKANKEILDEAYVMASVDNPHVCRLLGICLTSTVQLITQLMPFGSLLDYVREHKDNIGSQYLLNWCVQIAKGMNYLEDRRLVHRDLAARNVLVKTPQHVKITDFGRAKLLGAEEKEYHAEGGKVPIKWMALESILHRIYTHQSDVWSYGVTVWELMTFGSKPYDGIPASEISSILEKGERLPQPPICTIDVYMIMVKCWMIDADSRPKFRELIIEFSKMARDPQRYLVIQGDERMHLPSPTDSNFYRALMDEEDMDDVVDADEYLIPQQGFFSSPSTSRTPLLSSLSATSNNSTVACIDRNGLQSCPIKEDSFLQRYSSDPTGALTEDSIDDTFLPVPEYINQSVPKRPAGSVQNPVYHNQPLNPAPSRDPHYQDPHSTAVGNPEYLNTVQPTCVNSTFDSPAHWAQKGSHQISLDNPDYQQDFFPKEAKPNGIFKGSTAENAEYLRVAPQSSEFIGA
# In short: (§1)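 Read-out is the HTRF 665/615 nm ratio (excitation 320 nm), taken as proportional to kinase activity after a 1 h room-temperature reaction with 1 mM ATP and 1 μM biotinylated TK substrate. IC50 values derive from four-parameter logistic fitting.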
# EGFR Exon19Del = biological target: T2, EGFR Exon19Del (Homo sapiens, UniProt P00533, DEL746-750); assay: Inhibition of EGFR Exon19Del biochemical enzymatic activity (HTRF); details: EGFR Del19, 1 mM ATP, 1 h, room temperature, read-out: IC50 @Del19
# T2 construct: purchased Carna Bio
# T2 sequence (P00533 with tags, fused parts or gaps DEL746-750 limits assumed): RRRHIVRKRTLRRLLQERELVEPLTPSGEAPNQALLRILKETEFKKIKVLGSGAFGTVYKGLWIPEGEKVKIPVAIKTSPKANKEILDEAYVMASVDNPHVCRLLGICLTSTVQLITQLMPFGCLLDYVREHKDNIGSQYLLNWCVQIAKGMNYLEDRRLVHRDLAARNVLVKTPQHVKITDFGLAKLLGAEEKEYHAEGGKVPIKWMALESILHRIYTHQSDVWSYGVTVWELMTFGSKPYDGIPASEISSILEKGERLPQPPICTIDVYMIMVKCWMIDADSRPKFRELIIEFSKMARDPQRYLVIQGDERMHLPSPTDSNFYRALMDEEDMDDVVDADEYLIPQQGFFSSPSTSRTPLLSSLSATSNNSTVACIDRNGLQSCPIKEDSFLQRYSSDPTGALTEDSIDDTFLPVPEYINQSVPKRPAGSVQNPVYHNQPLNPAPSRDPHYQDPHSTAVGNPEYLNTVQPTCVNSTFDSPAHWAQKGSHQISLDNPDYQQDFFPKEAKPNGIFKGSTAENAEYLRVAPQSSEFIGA
# In short: as §1
# EGFR wild type = biological target: T3, EGFR wild type (Homo sapiens, UniProt P00533); assay: Inhibition of EGFR wild type biochemical enzymatic activity (HTRF); details: EGFR WT, 1 mM ATP, 1 h, room temperature, read-out: IC50 (nM) @WT
# T3 construct: purchased Carna Bio
# T3 sequence (P00533 25-1210): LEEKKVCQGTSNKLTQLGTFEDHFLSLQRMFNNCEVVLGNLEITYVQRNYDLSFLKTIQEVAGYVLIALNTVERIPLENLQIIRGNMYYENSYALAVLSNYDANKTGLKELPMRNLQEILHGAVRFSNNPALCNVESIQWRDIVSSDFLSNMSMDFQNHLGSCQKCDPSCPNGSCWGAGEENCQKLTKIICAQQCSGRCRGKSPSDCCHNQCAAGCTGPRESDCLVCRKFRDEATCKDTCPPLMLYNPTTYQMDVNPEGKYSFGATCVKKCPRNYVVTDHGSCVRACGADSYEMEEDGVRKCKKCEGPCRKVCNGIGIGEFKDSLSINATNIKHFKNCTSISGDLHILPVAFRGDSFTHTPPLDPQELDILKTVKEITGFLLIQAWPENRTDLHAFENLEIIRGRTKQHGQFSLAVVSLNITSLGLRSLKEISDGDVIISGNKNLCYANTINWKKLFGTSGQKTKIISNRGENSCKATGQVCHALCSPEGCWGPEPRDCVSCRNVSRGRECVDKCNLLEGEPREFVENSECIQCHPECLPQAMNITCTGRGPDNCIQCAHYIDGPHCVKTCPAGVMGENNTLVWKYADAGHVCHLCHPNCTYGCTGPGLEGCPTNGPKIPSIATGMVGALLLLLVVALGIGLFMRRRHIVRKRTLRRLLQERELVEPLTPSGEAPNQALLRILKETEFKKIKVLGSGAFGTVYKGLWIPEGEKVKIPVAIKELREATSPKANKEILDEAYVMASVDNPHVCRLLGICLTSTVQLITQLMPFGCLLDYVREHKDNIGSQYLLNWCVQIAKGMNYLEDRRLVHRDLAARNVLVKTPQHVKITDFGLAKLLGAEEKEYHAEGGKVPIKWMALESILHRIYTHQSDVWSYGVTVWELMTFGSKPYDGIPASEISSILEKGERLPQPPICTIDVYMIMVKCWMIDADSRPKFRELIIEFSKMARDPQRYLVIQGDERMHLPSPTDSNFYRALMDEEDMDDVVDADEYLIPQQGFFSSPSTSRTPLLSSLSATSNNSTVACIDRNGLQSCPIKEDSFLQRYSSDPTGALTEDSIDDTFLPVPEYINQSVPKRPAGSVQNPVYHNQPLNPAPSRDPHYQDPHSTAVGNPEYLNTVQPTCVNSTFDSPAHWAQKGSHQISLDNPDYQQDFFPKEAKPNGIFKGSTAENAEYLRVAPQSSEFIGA
# In short: as §1
# EGFR (d746-750 C797S) = biological target: T4, EGFR (d746-750 C797S) (Homo sapiens, UniProt P00533, C797S/DEL746-750); assay: Inhibition of EGFR (d746-750 C797S) biochemical enzymatic activity (HTRF); details: EGFR Del19-C797S, 1 mM ATP, 1 h, room temperature, read-out: IC50 (nM) @Del19-C797S
# T4 construct: purchased signalchem
# T4 sequence (P00533 with tags, fused parts or gaps DEL746-750/C797S limits assumed): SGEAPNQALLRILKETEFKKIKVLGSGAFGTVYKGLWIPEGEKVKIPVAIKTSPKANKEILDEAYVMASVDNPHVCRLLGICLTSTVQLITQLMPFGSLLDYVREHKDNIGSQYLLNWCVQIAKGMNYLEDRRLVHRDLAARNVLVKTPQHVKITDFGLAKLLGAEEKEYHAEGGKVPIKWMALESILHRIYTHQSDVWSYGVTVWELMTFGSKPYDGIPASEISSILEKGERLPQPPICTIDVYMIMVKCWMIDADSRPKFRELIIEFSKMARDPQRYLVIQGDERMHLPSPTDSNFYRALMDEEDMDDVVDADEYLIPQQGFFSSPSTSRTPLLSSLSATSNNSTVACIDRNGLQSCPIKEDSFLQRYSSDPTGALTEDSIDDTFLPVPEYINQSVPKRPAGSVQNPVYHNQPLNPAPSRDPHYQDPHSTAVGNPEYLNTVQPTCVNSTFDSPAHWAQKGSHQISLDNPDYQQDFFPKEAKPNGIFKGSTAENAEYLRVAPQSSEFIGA
# In short: as §1
# EGFR L858R = biological target: T5, EGFR L858R (Homo sapiens, UniProt P00533, L858R); assay: Inhibition of EGFR L858R biochemical enzymatic activity (HTRF); details: 1 mM ATP, 1 h, room temperature, read-out: IC50 (nM) @L858R
# T5 construct: purchased Carna Bio
# In short: as §1
# A-431 = assay: Cell proliferation GI50, A-431 cells (Table 6); assay type: cell-based
# Experimental: [Worded in the source for another cell line; this cell line is reported under the same test.] Ba/F3 cells expressing EGFR mutations were seeded in 384-well plates at 5000 cells/well in RPMI1640 medium containing […]. PC-9 at 500 cells/well was seeded into 384-well plates in RPMI1640 medium with 10% FBS. After overnight incubation, the assay plates were dosed with compounds at a series of concentrations. Alongside dosing the assay plates, the day 0 plate was processed using CellTiter-Glo® Luminescent Cell Viability Assay (Promega) to measure the number of viable cells (G0). The assay plates were further incubated for 72 hours and the number of viable cells (G3) was measured. The percentage of proliferation was calculated as: […]=100×(G3 value of sample well−G0 value)/(G3 value of DMSO control−G0 value). The concentration of compound producing 50% proliferation inhibition (GI50) was further calculated in best-fit curves using XLFit software. N/A=not available.
# PC-9 = assay: Cell proliferation assay, PC-9 cells (CellTiter-Glo, 72 hours); assay type: cell-based; details: PC9 cells, CellTiter-Glo, read-out: PC9 GI50
# In short: (§2)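 Seed Ba/F3 at 5000 cells/well and PC-9 at 500 cells/well (10% FBS RPMI1640); incubate overnight; add compound dilution series; read a G0 plate; incubate; read G3; GI50 from best-fit curve.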
# [1] = biological target: T6, EGFR[T790M/C797S/d746-750] (Homo sapiens, UniProt P00533, C797S/DEL746-750/T790M); assay: Inhibition of EGFR[T790M/C797S/d746-750] biochemical enzymatic activity (HTRF); details: EGFR T790M-C797S-Del19, 1 mM ATP, 1 h, room temperature, read-out: IC50 (nM) @T790M - C797S - Del19
# T6 construct: purchased Carna Bio
# In short: as §1
# EGFR[T790M/C797S/L858R] = biological target: T7, EGFR[T790M/C797S/L858R] (Homo sapiens, UniProt P00533, C797S/L858R/T790M); assay: Inhibition of EGFR[T790M/C797S/L858R] biochemical enzymatic activity (HTRF); details: EGFR T790M-C797S-L858R, 1 mM ATP, 1 h, room temperature, read-out: IC50 (nM) @T790M- C797S - L858R
# T7 construct: purchased Carna Bio
# In short: as §1
# [2] = test system: Ba/F3 cells expressing EGFR mutations; assay: Cell proliferation assay, Ba/F3 cells expressing EGFR mutations (CellTiter-Glo, 72 hours); assay type: cell-based; details: CellTiter-Glo
# In short: as §2
# EGFR L858R/T790M = biological target: T8, EGFR L858R/T790M (Homo sapiens, UniProt P00533, L858R/T790M); assay: Inhibition of EGFR L858R/T790M biochemical enzymatic activity (HTRF); details: EGFR L858R-T790M, 1 mM ATP, 1 h, room temperature, read-out: IC50 (nM) @L858R-T790M
# T8 construct: purchased Carna Bio
# T8 sequence (P00533 25-1210 T790M/L858R): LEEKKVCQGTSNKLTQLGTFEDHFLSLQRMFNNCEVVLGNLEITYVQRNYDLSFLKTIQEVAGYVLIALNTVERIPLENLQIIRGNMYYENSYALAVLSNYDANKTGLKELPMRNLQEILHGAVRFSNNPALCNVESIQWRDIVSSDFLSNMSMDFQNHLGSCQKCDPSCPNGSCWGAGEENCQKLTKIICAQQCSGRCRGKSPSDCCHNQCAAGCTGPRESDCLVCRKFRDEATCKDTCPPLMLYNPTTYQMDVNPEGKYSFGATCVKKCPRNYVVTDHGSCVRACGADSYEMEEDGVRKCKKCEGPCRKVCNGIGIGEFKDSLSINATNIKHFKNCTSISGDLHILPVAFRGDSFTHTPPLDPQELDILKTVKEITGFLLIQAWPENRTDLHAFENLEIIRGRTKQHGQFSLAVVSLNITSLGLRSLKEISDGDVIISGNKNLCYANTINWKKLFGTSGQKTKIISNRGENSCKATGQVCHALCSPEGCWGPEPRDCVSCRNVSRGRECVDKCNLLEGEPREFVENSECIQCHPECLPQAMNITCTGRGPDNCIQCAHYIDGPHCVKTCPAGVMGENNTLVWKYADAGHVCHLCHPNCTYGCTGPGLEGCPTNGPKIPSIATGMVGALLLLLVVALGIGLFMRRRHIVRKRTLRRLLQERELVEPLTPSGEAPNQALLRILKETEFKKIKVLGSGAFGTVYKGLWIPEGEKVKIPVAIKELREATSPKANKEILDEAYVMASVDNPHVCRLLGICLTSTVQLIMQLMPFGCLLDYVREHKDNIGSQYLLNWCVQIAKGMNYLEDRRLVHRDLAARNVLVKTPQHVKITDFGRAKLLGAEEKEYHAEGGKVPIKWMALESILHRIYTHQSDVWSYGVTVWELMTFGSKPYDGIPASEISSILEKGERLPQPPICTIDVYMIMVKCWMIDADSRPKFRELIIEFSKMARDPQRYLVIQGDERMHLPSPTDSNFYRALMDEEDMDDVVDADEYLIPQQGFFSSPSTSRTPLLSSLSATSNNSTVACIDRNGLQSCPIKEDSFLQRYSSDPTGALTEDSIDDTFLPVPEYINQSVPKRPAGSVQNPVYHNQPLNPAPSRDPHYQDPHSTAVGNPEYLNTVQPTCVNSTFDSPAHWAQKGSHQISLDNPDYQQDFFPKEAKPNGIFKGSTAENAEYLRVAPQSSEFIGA
# In short: as §1
# EGFR Exon19Del/T790M = biological target: T9, EGFR Exon19Del/T790M (Homo sapiens, UniProt P00533, DEL746-750/T790M); assay: Inhibition of EGFR Exon19Del/T790M biochemical enzymatic activity (HTRF); details: EGFR Del19-T790M, 1 mM ATP, 1 h, room temperature, read-out: IC50 (nM) @Del19-T790M
# T9 construct: purchased Carna Bio
# In short: as §1
# [3] = BaF3 cells, EGFR DEL19-C797S, read-out: DEL19-C797S/BaF3 GI50
# [4] = BaF3 cells, EGFR DEL19-T790-C797S, read-out: DEL19-T790-C797S/BaF3 GI50
# [5] = BaF3 cells, EGFR L858R, read-out: L858R/BaF3 GI50
# [6] = BaF3 cells, EGFR L858R-C797S, read-out: L858R-C797S/BaF3 GI50
# [7] = BaF3 cells, EGFR L858R-T790-C797S, read-out: L858R-T790-C797S/BaF3 GI50
# [8] = BaF3 cells, EGFR L858R-T790M, read-out: L858R-T790M/BaF3 GI50
# [9] = EGFR DEL19-T790M, read-out: DEL19-T790M GI50
# [10] = Homo sapiens, A-431, A-431 cells
# [11] = Mus musculus, BaF3, 72 h, BaF3 cells, EGFR DEL19-C797S, read-out: DEL19-C797S/BaF3 GI50
# [12] = Mus musculus, BaF3, 72 h, BaF3 cells, EGFR DEL19-T790-C797S, read-out: DEL19-T790-C797S/BaF3 GI50
# [13] = Mus musculus, BaF3, 72 h, BaF3 cells, EGFR L858R, read-out: L858R/BaF3 GI50
# [14] = Mus musculus, BaF3, 72 h, BaF3 cells, EGFR L858R-C797S, read-out: L858R-C797S/BaF3 GI50
# [15] = Mus musculus, BaF3, 72 h, BaF3 cells, EGFR L858R-T790-C797S, read-out: L858R-T790-C797S/BaF3 GI50
# [16] = Mus musculus, BaF3, 72 h, BaF3 cells, EGFR L858R-T790M, read-out: L858R-T790M/BaF3 GI50
# [17] = Mus musculus, BaF3, 72 h, EGFR DEL19-T790M, read-out: DEL19-T790M GI50
IC50 (EGFR (C797S L858R)) [nM],IC50 (EGFR Exon19Del) [nM],IC50 (EGFR wild type) [nM],IC50 (EGFR (d746-750 C797S)) [nM],IC50 (EGFR L858R) [nM],GI50 (A-431; A-431 cells) [nM],"GI50 (PC-9; Homo sapiens, PC-9, 72 h) [nM]",IC50 [1] [nM],IC50 (EGFR[T790M/C797S/L858R]) [nM],"GI50 [2, 3] [nM]","GI50 [2, 4] [nM]","GI50 [2, 5] [nM]","GI50 [2, 6] [nM]","GI50 [2, 7] [nM]","GI50 [2, 8] [nM]","GI50 [2, 9] [nM]",IC50 (EGFR L858R/T790M) [nM],IC50 (EGFR Exon19Del/T790M) [nM],GI50 (PC-9) [nM],GI50 (A-431; [10]) [nM],Compound,further results
1350,150,> 5000,152,> 5000,95,139,115,> 5000,73,122,182,113,161,165,117,> 5000,127,,,"CCC1CCCOc2c(cnn2C)-c2cc(cn(C)c2=O)C(=O)Nc2nc3ccc(N4CCN(C)CC4)cc3n2C1 (single isomer, unassigned) [Example A16A, 11-Ethyl-5,26-dimethyl-16-(4-methylpiperazin-1-yl)-7-oxa-4,5,13,20,22,26-hexaazapentacyclo[22.3.1.0^{2,6}.0^{13,21}.0^{14,19}]octacosa-1(28),2(6),3,14,16,18,20,24-octaene-23,27-dione]",
16,5.5,288,3.2,28,664,,10,14,5.2,24,21,19,17,53,29,22,12,73,,"CCC1CCCOc2c(cnn2C)-c2cc(cn(C)c2=O)C(=O)Nc2nc3ccc(N4CCN(C)CC4)cc3n2C1 (single isomer, unassigned) [Example A16B, 11-Ethyl-5,26-dimethyl-16-(4-methylpiperazin-1-yl)-7-oxa-4,5,13,20,22,26-hexaazapentacyclo[22.3.1.0^{2,6}.0^{13,21}.0^{14,19}]octacosa-1(28),2(6),3,14,16,18,20,24-octaene-23,27-dione]",
> 5000,2180,> 5000,1660,> 5000,,1910,> 5000,> 5000,,,,,,,,> 5000,> 5000,,5900,"Cn1ncc2c1OCCN1CC3CCC(C3)(C1)n1c(nc3ccccc31)NC(=O)c1cc-2c(=O)n(C)c1 (single isomer, unassigned) [Example A61A, 15,21-Dimethyl-23-oxa-2,9,11,15,20,21,26-heptaazaheptacyclo[24.4.1.1^{1,28}.1^{13,17}.0^{2,10}.0^{3,8}.0^{18,22}]tritriaconta-3,5,7,9,13,17(33),18(22),19-octaene-12,16-dione]","GI50 [2, 11]: 521 nM; GI50 [2, 12]: 688 nM; GI50 [2, 13]: 1370 nM; GI50 [2, 14]: 1740 nM; GI50 [2, 15]: 1910 nM; GI50 [2, 16]: 2660 nM; GI50 [2, 17]: 913 nM"
19,3.5,809,1.4,45,,10,2.9,4.3,,,,,,,,6.3,2.8,,1070,"Cn1ncc2c1OCCN1CC3CCC(C3)(C1)n1c(nc3ccc(N4CCOCC4)cc31)NC(=O)c1cc-2c(=O)n(C)c1 (single isomer, unassigned) [Example A62B, 15,21-Dimethyl-5-(morpholin-4-yl)-23-oxa-2,9,11,15,20,21,26-heptaazaheptacyclo[24.4.1.1^{1,28}.1^{13,17}.0^{2,10}.0^{3,8}.0^{18,22}]tritriaconta-3,5,7,9,13,17(33),18(22),19-octaene-12,16-dione]","GI50 [2, 11]: 0.64 nM; GI50 [2, 12]: 2.5 nM; GI50 [2, 13]: 3.9 nM; GI50 [2, 14]: 5.2 nM; GI50 [2, 15]: 5.3 nM; GI50 [2, 16]: 8.4 nM; GI50 [2, 17]: 2.6 nM"
1.1,0.86,8,0.51,1.6,620,,1.1,0.96,0.67,1.4,1.1,3.1,1.3,8.6,1.9,0.92,0.94,5,,"CN1CCN(c2ccc3nc4n(c3c2)C23CCC(CN(CCOc5c(cnn5C)-c5cc(cn(C)c5=O)C(=O)N4)C2)C3)CC1 (single isomer, unassigned) [Example A63B]",
619,23,,18,917,4110,,9.4,157,19,40,87,120,86,457,63,240,8.6,146,,"CN1CCN(c2ccc3c(c2)nc2n3C34CCC(CN(CCOc5c(cnn5C)-c5cc(cn(C)c5=O)C(=O)N2)C3)C4)CC1 (centres unmarked) [Example A60, 15,21-dimethyl-6-(4-methylpiperazin-1-yl)-23-oxa-2,9,11,15,20,21,26-heptaazaheptacyclo[24.4.1.1^{1,28}.1^{13,17}.0^{2,10}.0^{3,8}.0^{18,22}]tritriaconta-3,5,7,9,13,17(33),18(22),19-octaene-12,16-dione]",
